In this test the test system is MV-4-11 cells. Put plainly: Gene expression microarray analysis (Affymetrix PrimeView) and GSEA. Set-up: RFU PODN (11730768_x_at) / Fold change /veh PODN (11730768_x_at) / RFU LINC00158 (11744669_a_at) / Fold change /veh LINC00158 (11744669_a_at) / RFU DUSP10 (11751237_a_at) / Fold change /veh DUSP10 (11751237_a_at) / RFU ID3 (11757404_x_at) / Fold change /veh ID3 (11757404_x_at) / RFU PLEKHG5 (11737974_s_at) / Fold change /veh PLEKHG5 (11737974_s_at) / RFU LRRC4B (11730491_at) / Fold change /veh LRRC4B (11730491_at) / RFU GIMAP4 (11747438_a_at) / Fold change /veh GIMAP4 (11747438_a_at) / RFU KRT8 (11758183_x_at) / Fold change /veh KRT8 (11758183_x_at) / RFU CNN1 (11734310_a_at) / Fold change /veh CNN1 (11734310_a_at) / RFU VPS37D (11726825_at) / Fold change /veh VPS37D (11726825_at) / RFU C10orf10 (11716522_x_at) / Fold change /veh C10orf10 (11716522_x_at) / RFU KIR2DL2 /// KIR2DL4 /// KIR2DL5A /// KIR2DL5B /// KIR2DS1 /// KIR2DS2 /// KIR2DS3 /// KIR2DS4 /// KIR3DL3 /// KIR3DL3 /// KIR3DS1 (11738374_at) / Fold change /veh KIR2DL2 /// KIR2DL4 /// KIR2DL5A /// KIR2DL5B /// KIR2DS1 /// KIR2DS2 /// KIR2DS3 /// KIR2DS4 /// KIR3DL3 /// KIR3DL3 /// KIR3DS1 (11738374_at) / RFU C1QL1 (11718748_at) / Fold change /veh C1QL1 (11718748_at) / RFU TMPRSS4 (11747572_a_at) / Fold change /veh TMPRSS4 (11747572_a_at) / RFU HAMP (11756126_x_at) / Fold change /veh HAMP (11756126_x_at) / RFU RNFT2 (11725882_a_at) / Fold change /veh RNFT2 (11725882_a_at) / RFU NR4A2 (11747474_a_at) / Fold change /veh NR4A2 (11747474_a_at) / RFU ABCC12 (11746883_a_at) / Fold change /veh ABCC12 (11746883_a_at) / RFU TMEM136 (11760407_x_at) / Fold change /veh TMEM136 (11760407_x_at) / RFU CLDN22 /// WWC2 (11732394_at) / Fold change /veh CLDN22 /// WWC2 (11732394_at) / RFU HLA-DPB1 (11760878_x_at) / Fold change /veh HLA-DPB1 (11760878_x_at) / RFU SPINT1 (11716480_a_at) / Fold change /veh SPINT1 (11716480_a_at) / RFU GAP43 (11754022_s_at) / Fold change /veh GAP43 (11754022_s_at) / RFU A4GNT (11735810_at) / Fold change /veh A4GNT (11735810_at) / RFU PRB3 (11715151_x_at) / Fold change /veh PRB3 (11715151_x_at) / RFU TUBB4B (11761932_at) / Fold change /veh TUBB4B (11761932_at) / RFU CAPN14 (11732068_a_at) / Fold change /veh CAPN14 (11732068_a_at) / RFU TMCC2 (11721928_a_at) / Fold change /veh TMCC2 (11721928_a_at) / RFU IRGQ (11745062_a_at) / Fold change /veh IRGQ (11745062_a_at) / RFU FAM174B (11720279_a_at) / Fold change /veh FAM174B (11720279_a_at) / RFU TMPRSS4 (11748680_a_at) / Fold change /veh TMPRSS4 (11748680_a_at) / RFU FAM212B (11763350_a_at) / Fold change /veh FAM212B (11763350_a_at) / RFU PLEKHG5 (11743358_a_at) / Fold change /veh PLEKHG5 (11743358_a_at) / RFU ZSCAN30 (11745921_a_at) / Fold change /veh ZSCAN30 (11745921_a_at) / RFU CMKLR1 (11741424_a_at) / Fold change /veh CMKLR1 (11741424_a_at) / RFU LOC101060620 /// MAPK8IP1 (11723275_at) / Fold change /veh LOC101060620 /// MAPK8IP1 (11723275_at) / RFU SPTSSB (11747773_x_at) / Fold change /veh SPTSSB (11747773_x_at) / RFU PRSS12 (11739890_at) / Fold change /veh PRSS12 (11739890_at) / RFU BIN1 (11741810_x_at) / Fold change /veh BIN1 (11741810_x_at) / RFU WNT11 (11732464_a_at) / Fold change /veh WNT11 (11732464_a_at) / RFU C10orf10 (11716521_a_at) / Fold change /veh C10orf10 (11716521_a_at) / RFU C5orf56 (11738089_at) / Fold change /veh C5orf56 (11738089_at) / RFU CYB561 (11721691_x_at) / Fold change /veh CYB561 (11721691_x_at) / RFU ANKRD19P (11752326_a_at) / Fold change /veh ANKRD19P (11752326_a_at) / RFU OR2T12 /// OR2T33 /// OR2T8 (11738714_s_at) / Fold change /veh OR2T12 /// OR2T33 /// OR2T8 (11738714_s_at) / RFU VCAN (11748164_a_at) / Fold change /veh VCAN (11748164_a_at) / RFU JSRP1 (11732532_at) / Fold change /veh JSRP1 (11732532_at) / RFU KRTAP10-11 (11738290_x_at) / Fold change /veh KRTAP10-11 (11738290_x_at) / RFU MYO3A (11730013_a_at) / Fold change /veh MYO3A (11730013_a_at) / RFU EBF3 (11725865_a_at) / Fold change /veh EBF3 (11725865_a_at) / RFU CAMK2N1 (11719241_x_at) / Fold change /veh CAMK2N1 (11719241_x_at) / RFU C5orf56 (11738088_a_at) / Fold change /veh C5orf56 (11738088_a_at) / RFU OLFML3 (11715873_a_at) / Fold change /veh OLFML3 (11715873_a_at) / RFU LOC100653217 /// NTM (11731650_a_at) / Fold change /veh LOC100653217 /// NTM (11731650_a_at) / RFU MAPK11 (11762145_a_at) / Fold change /veh MAPK11 (11762145_a_at) / RFU FIZ1 (11724087_x_at) / Fold change /veh FIZ1 (11724087_x_at) / RFU OASL (11726364_x_at) / Fold change /veh OASL (11726364_x_at) / RFU SOX15 (11748057_x_at) / Fold change /veh SOX15 (11748057_x_at) / RFU CD79A (11719716_a_at) / Fold change /veh CD79A (11719716_a_at) / RFU HIST1H1D (11736915_at) / Fold change /veh HIST1H1D (11736915_at) / RFU CASKIN2 (11723855_a_at) / Fold change /veh CASKIN2 (11723855_a_at) / RFU LOC730098 (11760151_x_at) / Fold change /veh LOC730098 (11760151_x_at) / RFU OR4N2 (11742367_at) / Fold change /veh OR4N2 (11742367_at) / RFU PRRT2 (11749266_a_at) / Fold change /veh PRRT2 (11749266_a_at) / RFU SNX32 (11753110_a_at) / Fold change /veh SNX32 (11753110_a_at) / RFU CDHR5 (11726645_a_at) / Fold change /veh CDHR5 (11726645_a_at) / RFU RCAN1 (11760418_a_at) / Fold change /veh RCAN1 (11760418_a_at) / RFU FAM167A (11723789_a_at) / Fold change /veh FAM167A (11723789_a_at) / RFU FAM26E (11764081_at) / Fold change /veh FAM26E (11764081_at) / RFU ISYNA1 (11749810_s_at) / Fold change /veh ISYNA1 (11749810_s_at) / RFU ACY1 (11761880_at) / Fold change /veh ACY1 (11761880_at) / RFU 11764098_at / Fold change /veh 11764098_at / RFU SAMD14 (11745864_x_at) / Fold change /veh SAMD14 (11745864_x_at) / RFU NPB (11741838_a_at) / Fold change /veh NPB (11741838_a_at) / RFU TMPRSS6 (11731388_a_at) / Fold change /veh TMPRSS6 (11731388_a_at) / RFU KRTAP10-2 (11738614_at) / Fold change /veh KRTAP10-2 (11738614_at) / RFU ARHGAP8 /// PRR5-ARHGAP8 (11727945_x_at) / Fold change /veh ARHGAP8 /// PRR5-ARHGAP8 (11727945_x_at) / RFU KRTAP5-7 /// NADSYN1 (11734609_at) / Fold change /veh KRTAP5-7 /// NADSYN1 (11734609_at) / RFU RASL12 (11751679_a_at) / Fold change /veh RASL12 (11751679_a_at) / RFU CDKN2B (11736163_a_at) / Fold change /veh CDKN2B (11736163_a_at) / RFU PRF1 (11729649_at) / Fold change /veh PRF1 (11729649_at) / RFU, ZNF638 /// ZNF638-IT1 / Fold change vs veh, ZNF638 /// ZNF638-IT1 / RFU, PANK3 / Fold change vs veh, PANK3 / RFU, SH3YL1 / Fold change vs veh, SH3YL1 / RFU, ZEB2 / Fold change vs veh, ZEB2 / RFU, NRIP1 / Fold change vs veh, NRIP1 / RFU, PTTG1IP / Fold change vs veh, PTTG1IP / RFU, CAPN2 / Fold change vs veh, CAPN2 / RFU, MED14 / Fold change vs veh, MED14 / RFU, SNORA58 / Fold change vs veh, SNORA58 / RFU, C1orf63 / Fold change vs veh, C1orf63 / RFU, LRRFIP1 / Fold change vs veh, LRRFIP1 / RFU, NDUFAF7 / Fold change vs veh, NDUFAF7 / RFU, SLC12A2 / Fold change vs veh, SLC12A2 / RFU, IBTK / Fold change vs veh, IBTK / RFU, ESF1 / Fold change vs veh, ESF1 / Fold change vs veh, TMEM50B / RFU, TAOK1 / Fold change vs veh, TAOK1 / RFU, ACBD3 / Fold change vs veh, ACBD3 / RFU, TMA16 / Fold change vs veh, TMA16 / RFU, RWDD3 / Fold change vs veh, RWDD3 / RFU, BCAT1 / Fold change vs veh, BCAT1 / RFU, EDEM3 / Fold change vs veh, EDEM3 / RFU, TMEM33 / Fold change vs veh, TMEM33 / RFU, WDR75 / Fold change vs veh, WDR75 / RFU, AHCTF1 / Fold change vs veh, AHCTF1 / RFU, TFRC / Fold change vs veh, TFRC / RFU, ZDHHC17 / Fold change vs veh, ZDHHC17 / RFU, NOM1 / Fold change vs veh, NOM1 / RFU, ARL8B / Fold change vs veh, ARL8B / RFU, ZBTB11 / Fold change vs veh, ZBTB11 / RFU, TAMM41 / Fold change vs veh, TAMM41 / RFU, KIAA1704 /// LOC100996395 / Fold change vs veh, KIAA1704 /// LOC100996395 / RFU, ING1 / Fold change vs veh, ING1 / RFU, TRMT61B / Fold change vs veh, TRMT61B / RFU, FUBP3 / Fold change vs veh, FUBP3 / RFU, TP53 / Fold change vs veh, TP53 / RFU, TNKS2 / Fold change vs veh, TNKS2 / RFU, ZFP14 / Fold change vs veh, ZFP14 / RFU, ACTR2 / Fold change vs veh, ACTR2 / RFU, PPP3R1 / Fold change vs veh, PPP3R1 / RFU, PIK3R1 / Fold change vs veh, PIK3R1 / RFU, HNRNPA1 / Fold change vs veh, HNRNPA1 / RFU, RNF170 / Fold change vs veh, RNF170 / RFU, ZNF28 / Fold change vs veh, ZNF28 / RFU, RNGTT / Fold change vs veh, RNGTT / RFU, OGT / Fold change vs veh, OGT / RFU, BRD1 / Fold change vs veh, BRD1 / RFU, MARS / Fold change vs veh, MARS / RFU, ZNF655 / Fold change vs veh, ZNF655 / RFU, FAHD1 / Fold change vs veh, FAHD1 / RFU, BDP1 / Fold change vs veh, BDP1 / RFU, LRRCC1 / Fold change vs veh, LRRCC1 / RFU, ARID1A / Fold change vs veh, ARID1A / RFU, ZNF146 / Fold change vs veh, ZNF146 / RFU, ZNF330 / Fold change vs veh, ZNF330 / RFU, GPN3 / Fold change vs veh, GPN3 / RFU, C9orf123 / Fold change vs veh, C9orf123 / RFU, N4BP2L2 / Fold change vs veh, N4BP2L2 / RFU, ARFIP1 / Fold change vs veh, ARFIP1 / RFU, FAM179B / Fold change vs veh, FAM179B / RFU, BCL10 / Fold change vs veh, BCL10 / RFU, UHRF1BP1L / Fold change vs veh, UHRF1BP1L / RFU, BET1 / Fold change vs veh, BET1 / RFU, CNOT2 / Fold change vs veh, CNOT2 / RFU, ZNF268 / Fold change vs veh, ZNF268 / Fold change vs veh, ZNF507 / RFU, DGCR2 / Fold change vs veh, DGCR2 / RFU, WDSUB1 / Fold change vs veh, WDSUB1 / Fold change vs veh, HSP90B1 /// MIR3652 / RFU, ADSS / Fold change vs veh, ADSS / RFU, GK / Fold change vs veh, GK / RFU, ZNF148 / Fold change vs veh, ZNF148 / RFU, TAF9 / Fold change vs veh, TAF9 / RFU, SLC1A5 / Fold change vs veh, SLC1A5 / RFU, SLMO2 / Fold change vs veh, SLMO2 / RFU, ABCC4 / Fold change vs veh, ABCC4 / RFU, LOC101060439 /// RAP1B / Fold change vs veh, LOC101060439 /// RAP1B / RFU, RFX7 / Fold change vs veh, RFX7 / RFU, GTPBP10 / Fold change vs veh, GTPBP10 / RFU, CNEP1R1 / Fold change vs veh, CNEP1R1 / RFU, BIVM-ERCC5 /// ERCC5 / Fold change vs veh, BIVM-ERCC5 /// ERCC5 / RFU, ILF3 / Fold change vs veh, ILF3 / RFU 11762660_at / Fold change /veh 11762660_at / RFU VCAN (11757783_s_at) / Fold change /veh VCAN (11757783_s_at) / RFU DDX43 (11728927_at) / Fold change /veh DDX43 (11728927_at) / RFU KRT8 (11758188_x_at) / Fold change /veh KRT8 (11758188_x_at) / RFU NKD1 (11759106_at) / Fold change /veh NKD1 (11759106_at) / RFU SRD5A1 (11742802_a_at) / Fold change /veh SRD5A1 (11742802_a_at) / RFU TPSAB1 /// TPSB2 (11721975_s_at) / Fold change /veh TPSAB1 /// TPSB2 (11721975_s_at) / RFU GSTM3 (11746129_a_at) / Fold change /veh GSTM3 (11746129_a_at) / RFU IL23R (11737362_x_at) / Fold change /veh IL23R (11737362_x_at) / RFU TMEM51 (11727254_a_at) / Fold change /veh TMEM51 (11727254_a_at) / RFU PIWIL2 (11732686_x_at) / Fold change /veh PIWIL2 (11732686_x_at) / RFU ORM1 (11744905_x_at) / Fold change /veh ORM1 (11744905_x_at) / RFU CCDC152 (11743942_at) / Fold change /veh CCDC152 (11743942_at) / RFU ECM1 (11717891_a_at) / Fold change /veh ECM1 (11717891_a_at) / RFU IL23R (11748794_a_at) / Fold change /veh IL23R (11748794_a_at) / RFU TNFAIP8L3 (11732012_x_at) / Fold change /veh TNFAIP8L3 (11732012_x_at) / RFU MBOAT4 (11741988_at) / Fold change /veh MBOAT4 (11741988_at) / RFU 11764193_at / Fold change /veh 11764193_at / RFU TMEM53 (11763286_at) / Fold change /veh TMEM53 (11763286_at) / RFU MAGEB2 (11727129_at) / Fold change /veh MAGEB2 (11727129_at) / RFU TMEM200A (11744735_a_at) / Fold change /veh TMEM200A (11744735_a_at) / RFU CCDC152 (11751479_a_at) / Fold change /veh CCDC152 (11751479_a_at) / RFU FAM211A (11726209_a_at) / Fold change /veh FAM211A (11726209_a_at) / RFU RGS16 (11746705_a_at) / Fold change /veh RGS16 (11746705_a_at) / RFU VCAN (11755009_s_at) / Fold change /veh VCAN (11755009_s_at) / RFU RHOB (11743442_s_at) / Fold change /veh RHOB (11743442_s_at) / RFU RGS16 (11720943_a_at) / Fold change /veh RGS16 (11720943_a_at) / RFU RGS16 (11720944_at) / Fold change /veh RGS16 (11720944_at) / RFU, VPS4B / Fold change vs veh, VPS4B / RFU, CREB1 / Fold change vs veh, CREB1 / RFU, DNAJC13 / Fold change vs veh, DNAJC13 / RFU, GNAQ / Fold change vs veh, GNAQ / RFU, CDK5R1 / Fold change vs veh, CDK5R1 / RFU, ZRANB3 / Fold change vs veh, ZRANB3 / RFU, CUL4A / Fold change vs veh, CUL4A / RFU, CCNY / Fold change vs veh, CCNY / RFU, UFL1 / Fold change vs veh, UFL1 / RFU, COG3 / Fold change vs veh, COG3 / RFU, DIAPH2 / Fold change vs veh, DIAPH2 / RFU, SKA2 / Fold change vs veh, SKA2 / RFU, AFF3 / Fold change vs veh, AFF3 / RFU, LMF1 / Fold change vs veh, LMF1 / RFU, IPO11 / Fold change vs veh, IPO11 / RFU, DFFB / Fold change vs veh, DFFB / RFU, FOXP1 / Fold change vs veh, FOXP1 / RFU, CARD8 / Fold change vs veh, CARD8 / RFU, STRN3 / Fold change vs veh, STRN3 / RFU, ADK / Fold change vs veh, ADK / RFU, RASSF2 / Fold change vs veh, RASSF2 / RFU, WIPF1 / Fold change vs veh, WIPF1 / RFU, LARP1B / Fold change vs veh, LARP1B / RFU, RASA1 / Fold change vs veh, RASA1 / RFU, RB1 / Fold change vs veh, RB1 / RFU, PPFIA1 / Fold change vs veh, PPFIA1 / RFU, MAT2A / Fold change vs veh, MAT2A / RFU, CCT5 / Fold change vs veh, CCT5 / RFU, WDR92 / Fold change vs veh, WDR92 / RFU, CUX1 / Fold change vs veh, CUX1 / RFU, TTC7A / Fold change vs veh, TTC7A / RFU, TMEM135 / Fold change vs veh, TMEM135 / RFU, DEPTOR / Fold change vs veh, DEPTOR / RFU, CPM / Fold change vs veh, CPM / RFU, DNAJB6 / Fold change vs veh, DNAJB6 / RFU, CACNA2D3 / Fold change vs veh, CACNA2D3 / RFU, DTX4 / Fold change vs veh, DTX4 / RFU, TFCP2 / Fold change vs veh, TFCP2 / RFU, GMCL1 /// GMCL1P1 / Fold change vs veh, GMCL1 /// GMCL1P1 / RFU, AEBP2 / Fold change vs veh, AEBP2 / RFU, SNHG1 /// SNORD22 /// SNORD25 /// SNORD26 /// SNORD27 /// SNORD28 /// SNORD29 /// SNORD31 / Fold change vs veh, SNHG1 /// SNORD22 /// SNORD25 /// SNORD26 /// SNORD27 /// SNORD28 /// SNORD29 /// SNORD31 / Fold change (Aza/veh), C12orf56 (ProbeSet 11735607_a_at) / Fold change (ACY-1035/veh), C12orf56 (ProbeSet 11735607_a_at) / Fold change (Aza/veh), FGFR1OP (ProbeSet 11751329_s_at) / Fold change (ACY-1035/veh), FGFR1OP (ProbeSet 11751329_s_at) / Fold change (Aza/veh), VPS36 (ProbeSet 11739960_a_at) / Fold change (ACY-1035/veh), VPS36 (ProbeSet 11739960_a_at) / RFU SYPL1 (11715823_x_at) / Fold change /veh SYPL1 (11715823_x_at) / RFU IGFBP7 (11715501_s_at) / Fold change /veh IGFBP7 (11715501_s_at) / RFU REEP3 (11722064_at) / Fold change /veh REEP3 (11722064_at) / RFU IGLL1 (11728026_x_at) / Fold change /veh IGLL1 (11728026_x_at): dose or concentration left out as unconfirmed. The format is cell-based, human. Conditions: MV-4-11 cells, 48 hours.

Take `Nc1ncn([C@@H]2O[C@H](CO)[C@@H](O)[C@H]2O)c(=O)n1` [azacitidine]: the “RFU PLEKHG5 (11737974_s_at)” value came out at 50.98 RFU.
